In paper PMC10716780, “The multistep oxidation of cholesterol to pregnenolone by human cytochrome P450 11A1 is highly processive” (The Journal of Biological Chemistry, 2023):

Biological target: T1, human P450 11A1 (Homo sapiens, UniProt P05108)
T1 sequence (P05108 41-521 limits assumed): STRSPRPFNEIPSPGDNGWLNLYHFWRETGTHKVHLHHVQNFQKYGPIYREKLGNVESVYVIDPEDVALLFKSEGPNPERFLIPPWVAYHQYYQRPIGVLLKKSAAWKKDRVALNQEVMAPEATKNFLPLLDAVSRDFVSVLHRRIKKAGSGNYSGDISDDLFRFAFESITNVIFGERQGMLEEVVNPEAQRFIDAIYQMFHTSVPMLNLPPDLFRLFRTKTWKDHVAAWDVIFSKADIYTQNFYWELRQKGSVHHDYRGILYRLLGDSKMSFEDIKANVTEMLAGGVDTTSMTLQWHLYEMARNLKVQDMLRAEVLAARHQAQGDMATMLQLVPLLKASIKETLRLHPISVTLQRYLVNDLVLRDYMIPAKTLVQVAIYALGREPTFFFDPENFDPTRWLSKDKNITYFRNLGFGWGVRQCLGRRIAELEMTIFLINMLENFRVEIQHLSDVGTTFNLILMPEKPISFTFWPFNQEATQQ
T1 sequence (P00257 59-186 partner): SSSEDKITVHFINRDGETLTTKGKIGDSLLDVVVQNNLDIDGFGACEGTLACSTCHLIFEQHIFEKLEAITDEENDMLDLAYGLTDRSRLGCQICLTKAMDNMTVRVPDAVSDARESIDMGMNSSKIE
Assay: Single-turnover kinetics of P450 11A1 with [1,2-3H]-cholesterol (radio-HPLC)
Format: biochemical
Design: M A S T R S P R P F N E I P S P G D N; Met-Ala (N-terminal start residues in place of the transit peptide and Ile40) (N); made in house; host or cells: E. coli (P450 11A1 in C41(DE3); Adx and AdR in E. coli)
Description: In this reaction, a 5 μM complex of P450 11A1 and 4.5 μM cholesterol was assembled, and Adx was added at either equimolar (low, 5 μM) or 10-fold excess (high, 50 μM) concentrations (along with 10 μM AdR). The complex was diluted 2-fold (with 5 mM NADPH) in the apparatus to initiate the reaction, which was quenched at variable times. The products of the reaction were extracted and quantified by radio-HPLC. […] (The analysis of kinetic modeling is described below.)
P450 11A1 (5 μM) was reconstituted with its redox partners AdR (10 μM) and Adx (5 μM) on ice (10 min) prior to dilution in potassium Hepes buffer (50 mM, pH 7.4) and H2O and the addition of ^3H-cholesterol substrate (4.5 μM, 0.5 Ci/mmol). The concentration of substrate was deliberately kept slightly below the enzyme concentration to ensure that single-turnover conditions were strictly followed. The mixture (0.75 ml) was preincubated (37 °C, 5 min) in a shaking water bath prior to initiation with an equal volume of NADPH solution (5 mM, from a 10 mM stock in 50 mM potassium Hepes buffer, pH 7.4), thus reducing the concentrations of all enzymes and substrate to one-half their starting concentrations. After completing the desired incubation time, an aliquot (200 μl) was removed from the incubation and added to vials containing aqueous HCl (800 μl, 1 M). The quenched reactions were mixed with a vortex device and placed on ice. When the time course was complete, the quenched reactions were mixed with CH2Cl2 (5 ml) to extract reaction products and were centrifuged (10^3g, 5 min, 23 °C) to separate layers, and the organic (bottom) layers were transferred (4 ml) to fresh glass vials. The extraction process was repeated and the two extracts (2 × 4 ml) from each sample were combined to maximize product recovery. Samples (8 ml) were brought to dryness under a stream of nitrogen, and the dried residues were dissolved in CH3OH (75 μl) and transferred to autosampler vials for analysis by radio-HPLC.
Enzyme and NADPH solutions were prepared as described for the benchtop experiments (above) but with the modification that the concentration of Adx was increased to 50 μM (from 5 μM). […] The rapid quench-flow is a rapid mixing device that combines equal volumes (∼19 μl) of two solutions (P450 and NADPH, held at 37 °C) into a central internal chamber to initiate a reaction. After the preset reaction time is completed, the mixture (∼38 μl) is then rapidly combined with a quench solution (1 M HCl, ∼160 μl), expelled from the apparatus, and collected in vials. Utilizing this experimental design, the reaction of enzyme-substrate complex (P450 11A1-Adx-AdR and ^3H-cholesterol) was initiated with NADPH on a variable timescale (0–90 s), pooling five replicates of each time point to maximize sensitivity. The products of each quenched reaction (∼1 ml) were extracted with two volumes (5 ml) of CH2Cl2, brought to dryness, and dissolved in CH3OH as described for the benchtop experiments.
Samples (held at 4 °C) were injected (50 μl) using a Agilent 1100 Series HPLC system on a NovaPak (Waters) octadecylsilane (C18) 3.9 mm × 100 mm (4 μm) column (held at 25 °C) with a flow rate of 1.0 ml min^−1 using a gradient mobile phase of (A) H2O and (B) CH3CN as follows (all in % B, v/v): 0 min, 70%; 10 min, 100%; 35.5 min, 100%; 37 min, 30%; and 40 min, 70%).

[1] = 10-fold excess (high) Adx, time 0 s
[2] = 10-fold excess (high) Adx, time 0.25 s
[3] = 10-fold excess (high) Adx, time 0.5 s
[4] = 10-fold excess (high) Adx, time 0.75 s
[5] = 10-fold excess (high) Adx, time 1 s
[6] = 10-fold excess (high) Adx, time 2 s
[7] = 10-fold excess (high) Adx, time 2.5 s
[8] = 10-fold excess (high) Adx, time 3.5 s
[9] = 10-fold excess (high) Adx, time 5 s
[10] = 10-fold excess (high) Adx, time 6 s
[11] = 10-fold excess (high) Adx, time 7.5 s
[12] = 10-fold excess (high) Adx, time 10 s
[13] = 10-fold excess (high) Adx, time 15 s
[14] = 10-fold excess (high) Adx, time 20 s
[15] = 10-fold excess (high) Adx, time 30 s
[16] = 10-fold excess (high) Adx, time 45 s
[17] = 10-fold excess (high) Adx, time 60 s
[18] = 10-fold excess (high) Adx, time 90 s
[19] = second table, headed 10-fold excess (high) Adx, time 0 s
[20] = second table, headed 10-fold excess (high) Adx, time 10 s
[21] = second table, headed 10-fold excess (high) Adx, time 25 s
[22] = second table, headed 10-fold excess (high) Adx, time 50 s
[23] = second table, headed 10-fold excess (high) Adx, time 75 s
[24] = second table, headed 10-fold excess (high) Adx, time 100 s
[25] = second table, headed 10-fold excess (high) Adx, time 200 s
[26] = second table, headed 10-fold excess (high) Adx, time 500 s

CC(C)CC[C@@H](O)[C@](C)(O)[C@H]1CC[C@H]2[C@@H]3CC=C4C[C@@H](O)CC[C@]4(C)[C@H]3CC[C@]12C [20R,22R-(OH)2 Chol, (20R,22R)-Cholest-5-ene-3β,20,22-triol]
concentration in single-turnover reaction [1]: 0 µM
concentration in single-turnover reaction [2]: 0 µM
concentration in single-turnover reaction [3]: 0.1366 µM
concentration in single-turnover reaction [4]: 0.2407 µM
concentration in single-turnover reaction [5]: 0.2278 µM
concentration in single-turnover reaction [6]: 0.1672 µM
concentration in single-turnover reaction [7]: 0.2051 µM
concentration in single-turnover reaction [8]: 0.184 µM
concentration in single-turnover reaction [9]: 0.1911 µM
concentration in single-turnover reaction [10]: 0.1865 µM
concentration in single-turnover reaction [11]: 0.2095 µM
concentration in single-turnover reaction [12]: 0.1817 µM
concentration in single-turnover reaction [13]: 0.1522 µM
concentration in single-turnover reaction [14]: 0.1106 µM
concentration in single-turnover reaction [15]: 0.03422 µM
concentration in single-turnover reaction [16]: 0 µM
concentration in single-turnover reaction [17]: 0 µM
concentration in single-turnover reaction [18]: 0 µM
concentration in single-turnover reaction [19]: 0 µM
concentration in single-turnover reaction [20]: 0.239 µM
concentration in single-turnover reaction [21]: 0.1619 µM
concentration in single-turnover reaction [22]: 0.07194 µM
concentration in single-turnover reaction [23]: 0.04787 µM
concentration in single-turnover reaction [24]: 0 µM
concentration in single-turnover reaction [25]: 0 µM
concentration in single-turnover reaction [26]: 0 µM

CC(C)CC[C@@H](O)[C@@H](C)[C@H]1CC[C@H]2[C@@H]3CC=C4C[C@@H](O)CC[C@]4(C)[C@H]3CC[C@]12C [22R-OH Chol, 22R-hydroxycholesterol]
concentration in single-turnover reaction [1]: 0 µM
concentration in single-turnover reaction [2]: 0.1665 µM
concentration in single-turnover reaction [3]: 0.3411 µM
concentration in single-turnover reaction [4]: 0.2577 µM
concentration in single-turnover reaction [5]: 0.2098 µM
concentration in single-turnover reaction [6]: 0.2144 µM
concentration in single-turnover reaction [7]: 0.1649 µM
concentration in single-turnover reaction [8]: 0.1652 µM
concentration in single-turnover reaction [9]: 0.1576 µM
concentration in single-turnover reaction [10]: 0.1666 µM
concentration in single-turnover reaction [11]: 0.1648 µM
concentration in single-turnover reaction [12]: 0.1591 µM
concentration in single-turnover reaction [13]: 0.1351 µM
concentration in single-turnover reaction [14]: 0.101 µM
concentration in single-turnover reaction [15]: 0.09739 µM
concentration in single-turnover reaction [16]: 0.06928 µM
concentration in single-turnover reaction [17]: 0.06822 µM
concentration in single-turnover reaction [18]: 0.05063 µM
concentration in single-turnover reaction [19]: 0 µM
concentration in single-turnover reaction [20]: 0.2262 µM
concentration in single-turnover reaction [21]: 0.1763 µM
concentration in single-turnover reaction [22]: 0.1172 µM
concentration in single-turnover reaction [23]: 0.06255 µM
concentration in single-turnover reaction [24]: 0 µM
concentration in single-turnover reaction [25]: 0 µM
concentration in single-turnover reaction [26]: 0 µM

CC(C)CCC[C@@H](C)[C@H]1CC[C@H]2[C@@H]3CC=C4C[C@@H](O)CC[C@]4(C)[C@H]3CC[C@]12C [Cholesterol]
time to complete reaction, low Adx (5 μM Adx): 3 min
time to complete reaction, excess Adx (50 μM Adx): 1 min
first-order decay, rate of 22R-hydroxylation (k2), single exponential fit (10-fold (50 μM) excess Adx): 0.09 s⁻¹
concentration in single-turnover reaction [1]: 4.5 µM
concentration in single-turnover reaction [2]: 4.334 µM
concentration in single-turnover reaction [3]: 4.022 µM
concentration in single-turnover reaction [4]: 3.865 µM
concentration in single-turnover reaction [5]: 3.748 µM
concentration in single-turnover reaction [6]: 3.432 µM
concentration in single-turnover reaction [7]: 3.365 µM
concentration in single-turnover reaction [8]: 3.113 µM
concentration in single-turnover reaction [9]: 2.84 µM
concentration in single-turnover reaction [10]: 2.762 µM
concentration in single-turnover reaction [11]: 2.508 µM
concentration in single-turnover reaction [12]: 1.814 µM
concentration in single-turnover reaction [13]: 1.24 µM
concentration in single-turnover reaction [14]: 0.9421 µM
concentration in single-turnover reaction [15]: 0.6054 µM
concentration in single-turnover reaction [16]: 0.4283 µM
concentration in single-turnover reaction [17]: 0.3162 µM
concentration in single-turnover reaction [18]: 0.26 µM
concentration in single-turnover reaction [19]: 4.5 µM
concentration in single-turnover reaction [20]: 2.794 µM
concentration in single-turnover reaction [21]: 1.649 µM
concentration in single-turnover reaction [22]: 0.7284 µM
concentration in single-turnover reaction [23]: 0.3322 µM
concentration in single-turnover reaction [24]: 0.1591 µM
concentration in single-turnover reaction [25]: 0 µM
concentration in single-turnover reaction [26]: 0 µM
